# Assay: in vitro
# Details: human, hela cells, % viability
Structure (SMILES),"viability at 28.5 h, 10 µM [%]","viability at 28.5 h, 10 µM (bulk resorufin, single well) [%]"
COc1cc(C=CC(=O)O)ccc1OCC(=O)NCC(C)C [CBK296721],107,
CC#Cc1cn([C@H]2C[C@@H](O)[C@@H](CO)O2)c(=O)nc1N [CBK201257],105,
O=C(N/N=C/c1ccc[nH]1)C1CC1c1ccccc1 (stereo not shown) [CBK022120],98.8,
CC(C)c1ccc(S(=O)(=O)Nc2cccc(SC(F)(F)F)c2)cc1 [CBK044581],99.5,
NS(=O)(=O)c1ccc(CCNC=C2C(=O)c3ccccc3C2=O)cc1 [CBK262997],99,
Cc1cc(CN2CCN(C(=O)NCCc3ccccn3)CC2)on1 [CBK305637],80,
O=C(CN1C(=O)c2ccc([N+](=O)[O-])cc2C1=O)Nc1cc(Cl)ccc1C(=O)O [CBK263472],97.1,
Cc1[nH]c2ccccc2c1C(=O)CSc1nc2scc(-c3ccco3)c2c(=O)n1-c1ccccc1 [CBK267933],93.3,
CN1CCN(C(=O)c2nc(SCc3ccccc3)ncc2Cl)CC1 [CBK269003],86.7,
O=C(NCC1(c2ccccc2)CCOCC1)c1ccno1 [CBK067408],98.2,
CN(C)CCNC(=O)NC(c1ccccc1)c1ccccc1 [CBK263505C],104,
Cc1cc(O)ccc1Nc1cc(-c2cc3ccccc3s2)ncn1 [CBK091057],87,
Cc1ccccc1NC(=O)Nc1ccc(OCc2ccccc2)cc1 [CBK262861],108,
CCOC(=O)C1(c2ccccc2)CCN(C(=O)C(c2ccccc2)c2ccccc2)CC1 [CBK132202],,100
C=Cn1cccc1C(=O)N1C2CCC1c1cnc3cc(C)nn3c1C2 (stereo not shown) [CBK284382],89.2,
Cc1ccc(CN2CC[C@H]3[C@@H](C2)[C@H](c2ccsc2)CN3C(=O)c2ccc(F)cc2)cc1 [CBK285637],98.1,
CCOc1ccc(N2C(=O)CC(N3CCN(c4ccccn4)CC3)C2=O)cc1 (stereo not shown) [CBK263285],100,
C1=CC2N=C(SCc3ccccc3)OC2C=C1 (stereo not shown) [CBK021412],92.6,
CCOC(=O)C1(c2ccccc2)CCN(C(=O)c2ccc(S(N)(=O)=O)cc2)CC1 [CBK132200],,99.7
O=C1N(Cc2cccc3ccccc23)c2ccccc2C1(c1ccc(O)cc1)c1ccc(O)cc1 [CBK261410],88.4,
CC1CN(Cc2ccccc2)CCN1c1cnccn1 (stereo not shown) [CBK013684],102,
CC(C)N(C(=O)c1ccccc1-c1cnn2cccnc12)C(C)C [CBK307701],85.4,

Structure (SMILES),"viability at 28.5 h, 10 µM [%]","viability at 28.5 h, 10 µM (bulk resorufin, single well) [%]"
O=c1cc(N2CCN(c3ccccc3)CC2)[nH]c(=O)n1-c1ccccc1Cl [CBK287506],101,
O=C(CCn1cnnn1)N1C[C@H]2CC[C@@H]1CN(Cc1cccnc1)C2 [CBK307029],88.9,
COc1ccc(C(=O)N2CCC3(CCCN(C(=O)c4ccc5occc5c4)C3)C2)cc1OC (stereo not shown) [CBK131665],97.6,
O=C(Nc1ccc(N2CCN(C(=O)c3ccco3)CC2)cc1)c1cc([N+](=O)[O-])ccc1N1CCOCC1 [CBK269052],91.6,
COc1cc(C=C2C(=O)NC(=O)NC2=O)cc(I)c1OCc1ccc(Cl)cc1Cl [CBK262528],,91.8
CS(=O)(=O)N1CC2CCCC(O)(c3cccc(F)c3)C2C1 (stereo not shown) [CBK283107],97.3,
Cc1cc(/C=C2/NC(=O)NC2=O)c(C)n1-c1ccc(S(N)(=O)=O)cc1 [CBK264747],106,
COCCC(=O)NC(Cc1cccs1)c1nccs1 (stereo not shown) [CBK282180],83.3,
CC1CCCCC12NC(=O)N(Cc1csc(-c3cccs3)n1)C2=O (stereo not shown) [CBK305829],98.4,
N#C/C(=C/c1ccc(Sc2ccc(Cl)cc2)o1)c1ccc(C(=O)O)cc1 [CBK268996],89.8,
CCN(CC)C(=O)CSc1nnc[nH]1 [CBK026212],93.3,
Cc1ccc(C(=O)NCC(O)c2ccc(F)cc2F)cn1 (stereo not shown) [CBK297751],89.8,
CS(=O)(=O)N1CC=CC1C(=O)NCCCc1ccc(F)cc1 (stereo not shown) [CBK282631],85.5,
N#CCCN(Cc1ccco1)C(=O)c1cccc(NC(=O)C2CC2)c1 [CBK304014],99.5,
CCCC(=O)Nc1nnc(-c2ccc(Cl)cc2)o1 [CBK287594],91.8,
Cc1ccc(S(=O)(=O)NC(C)(C)C)cc1C(=O)N(C)Cc1cnn(C)c1 [CBK305433],86.9,
Nc1ccc(-c2cc(N)n(-c3ccc(Oc4ccccc4)c(S(=O)(=O)O)c3)n2)cc1 [CBK261563],96.1,
CC(C)(C)c1n[nH]c(C2CN(C(=O)CCc3cscn3)CCO2)n1 (stereo not shown) [CBK305205],89.7,
Cn1ncnc1COc1ccc(S(=O)(=O)NC2CCCC2)cc1 [CBK306305],107,
Nc1c(C(=O)NCc2ccco2)c2nc3ccccc3nc2n1C1CCCC1 [CBK269323],106,
CCc1nc2ccc(C(=O)NCCCN3CCCC3=O)cn2c1N(C)C(=O)COc1ccccc1 [CBK145855],98.7,
CC(C(=O)N1CCCC(COc2ccc(F)cc2)C1)n1ccnc1 (stereo not shown) [CBK282027],85.8,

Structure (SMILES),"viability at 28.5 h, 10 µM [%]","viability at 28.5 h, 10 µM (bulk resorufin, single well) [%]"
CCCc1n[nH]c(=S)n1CC(=O)Nc1cccc(-n2ncc(C(=O)OCC)c2C)c1 [CBK297746],90.2,
CN1CCN(CC(=O)N2c3ccccc3C(C)(c3ccc(Cl)cc3)CC2(C)C)CC1 (stereo not shown) [CBK059202],88.1,
CN(C)C(=O)CSc1nc2cc(Cl)ccc2c(=O)n1CC1CCCO1 (stereo not shown) [CBK305932],97.3,
Cc1ccc(S(=O)(=O)Nc2ccnc(-c3ccc(CN4C(=O)CSC4=O)cc3)n2)cc1 [CBK067925],96.1,
C=CCNC(=O)C1(Cc2ccccc2-c2ccncc2)CCOCC1 [CBK284784],102,
O=c1cc(Cn2ccnc2)c2cc3c(cc2o1)CCC3 [CBK287813],88.8,
CCNC(=O)C1CCN(Cc2nc(-c3cc(OC)ccc3F)oc2C)C1 (stereo not shown) [CBK307040],98.4,
CC(C)c1nc(CC(=O)N2CCOC(c3ccc(F)cc3)C2)cs1 (stereo not shown) [CBK305334],93.9,
COc1ccccc1NC(=O)C(=O)NCCc1c[nH]c2ccccc12 [CBK266672],108,
CCCS(=O)(=O)Nc1nccnc1-c1cccs1 [CBK050763],89.4,
O=S(=O)(Nc1ccc(C(F)(F)F)cc1Cl)c1cc(Br)c(Cl)s1 [CBK057196],78.9,
COC(=O)c1cccc2c3c([nH]c12)CCCC3 [CBK000423],87.8,
Cc1nnc(SCC(=O)Nc2cc(C(F)(F)F)ccc2N2CCOCC2)o1 [CBK266815],109,
O=C(O)CCC(=O)c1c[nH]c2ccccc12 [CBK261275],110,
Cc1ccc(-c2csc(NC(=O)CN3C(=O)CCC3=O)n2)cc1 [CBK287346],98.3,
CC(=O)NC(Cc1c[nH]c2ccccc12)C(=O)O (stereo not shown) [CBK217373],95.9,
O=C(c1cccnc1)C1CCN(C(=O)C2CCCC2)CC1 [CBK283508],96.2,
CCC(=O)N1CCN(CCCC(=O)c2ccc(F)cc2)CC1 [CBK025017C],108,
Cc1c(Cl)ccc2c(C(=O)Nc3ccc(S(=O)(=O)N4CCOCC4)cc3)cc(-c3cccnc3)nc12 [CBK267718],85.5,
Cc1ccc(OCCNC(=O)NC(=O)C2CCN(C)CC2)c2c1CCC2 [CBK034824],115,
Cc1cc(S(=O)(=O)N2CCCC2)ccc1OCC(=O)O [CBK268289],89,
CC1(C(=O)Nc2cnn(Cc3ccc(F)cc3)c2)CCCO1 (stereo not shown) [CBK282585],104,

Structure (SMILES),"viability at 28.5 h, 10 µM [%]","viability at 28.5 h, 10 µM (bulk resorufin, single well) [%]"
COc1ccccc1-c1nccnc1NCC(C)O (stereo not shown) [CBK037637],90.4,
Nc1nnc(-c2ccc(Cl)cc2)[nH]1 [CBK025436],118,
CN(C)CCO/N=C1\CC2(CCCC2)c2ccc(Cl)cc21 [CBK013334],78.1,
CCNC(=O)O[C@@H]1CO[C@H]2[C@@H]1OC[C@@H]2NS(=O)(=O)c1ccccc1C#N [CBK289474],87.6,
c1ccc2c(N3CCCCC3)cnnc2c1 [CBK066897],99.2,
COc1ccccc1NC(=O)C(C)N1C(=O)c2ccccc2C1=O (stereo not shown) [CBK261043],92,
COCCNC(=O)c1cnc(-c2ccccc2)c(-c2cccnc2)c1 [CBK037515],106,
CCCc1ccc(C(=O)NCC(C)n2cncn2)o1 (stereo not shown) [CBK282883],92.5,
CCOC(=O)N[C@@H](CC1CCCCC1)C(=O)NCCc1ccc(S(N)(=O)=O)cc1 [CBK015131],106,
COc1cc(CCc2cc(O)n3nc(C)c(-c4ccc(Cl)cc4)c3n2)on1 [CBK285681],91.3,
O=C(c1ccc(NS(=O)(=O)c2ccccc2)cc1)N1CCN(Cc2ccc3c(c2)OCO3)CC1 [CBK267957],102,
Cn1cc(CN2CCC(c3cncc(-c4cccc(C(F)(F)F)c4)n3)CC2)cn1 [CBK286150],78.4,
CC(C)n1nccc1C(=O)NCC(c1ccccc1F)N1CCCC1 (stereo not shown) [CBK283032],94.1,
Cc1noc(C)c1C(=O)Nc1cnc(-c2ccc(F)cc2)c(-c2ccsc2)n1 [CBK036781],97.6,
O=C(NCCCN1CCCCC1)C1CC(=O)N(Cc2ccco2)C1 (stereo not shown) [CBK305145],93.1,
Nc1ccc2ccc(-c3cccc(C(F)(F)F)c3)nc2n1 [CBK067629],97.5,
Cc1ccc(OCc2occc2C(=O)N2CCC(O)(CN(C)C)C2)cc1 (stereo not shown) [CBK307341],95.6,
CSCCC(NC(=O)c1ccc(S(=O)(=O)N2CC(C)OC(C)C2)cc1)C(=O)O (stereo not shown) [CBK297101],104,
Cc1ccccc1-n1ncc2c1ncn1nc(-c3ccccc3)nc21 [CBK287797],94.3,
CC(=O)Nc1nc(C)c(S(=O)(=O)Nc2nc(C(C)C)ns2)s1 [CBK051227],90.9,
COc1ccc(C(=O)C2=C(O)C(=O)N(CCN3CCNCC3)C2c2ccc(Cl)c(Cl)c2)cc1 (stereo not shown) [CBK264616],95.1,
CCN(CC)C(=O)c1[nH]c2ccccc2c1NS(=O)(=O)c1ccc(C(F)(F)F)cc1[N+](=O)[O-] [CBK050109],103,

# — PMC12040169 (PLOS Biology, 2025)
